Experimental data taken from patent US20230085945A1, “ORTHOGONAL SAFETY SWITCHES TO ELIMINATE GENETICALLY ENGINEERED CELLS” (The Board of Trustees of the Leland Stanford Junior …, priority 2020, published 2023).

Experiments:
[1] = test system: undifferentiated NANOG^iCasp9-YFP hPSCs; assay: Viability of undifferentiated NANOG^iCasp9-YFP hPSCs after AP20187 (FACS, alamar blue; dose and time course); type: cell-based, human
Protocol: FIG. 9: Efficacy of the NANOG^iCasp9-YFP safety switch (related to FIG. 3). A) Undifferentiated NANOG^iCasp9-YFP hPSCs were treated with AP20187 at the indicated concentrations for 24 hours, and then the percentage of viable remaining cells was subsequently analyzed using FACS analysis (left) and alamar blue staining (right). For the FACS analysis, the percentage of cells shown represents viable cells (i.e., DAPI-negative cells obtained after DAPI staining) that were then gated for YFP+ (i.e., NANOG^+) cells. For the alamar blue analysis, wild-type hPSCs were used as a negative control. […] AP20187 doses equal to or greater than 100 nM may prevent efficient killing of NANOG^iCasp9-YFP hPSCs by considerably downregulating NANOG. Gene expression is depicted normalized to the reference gene YWHAZ (i.e., YWHAZ=1.0). C) Undifferentiated NANOG^iCasp9-YFP hPSCs were treated with the indicated doses of AP20187 for various lengths of time (6, 12, 24, 48, 72 hours) and then alamar blue assay was performed immediately thereafter to quantify the extent of cell death. […] D) Immunofluorescent imaging of NANOG^iCasp9-YFP hESCs in the undifferentiated state and after differentiation into day 6 sclerotome as marked by TWIST1 expression, both without and with treatment of cells with 1 nM AP20187 for 24 hours. […] The following marker genes were assessed in each respective cell-type: sclerotome (bone) progenitors (TWIST1, SOX9, PAX1, PAX9), liver progenitors (SOX17, HNF4A, AFP, TBX3), and forebrain (neural) progenitors (PAX6, FOXG1, OTX2, SIX3). F) Further validation of NANOG^iCasp9-YFP using a simulated mixed cell culture assay. NANOG^iCasp9-YFP undifferentiated hPSCs and hPSC-derived derived sclerotome cells were mixed at a 3:7 ratio, respectively. Mixed cells were treated with AP20187, and 24 hours post-treatment, FACS analysis was done to assess remaining NANOG^iCasp9-YFP hPSCs in culture.
Alamar Blue proliferation assay—hESCs were cultured in mTeSR1 (in the presence or absence of AP20187 at the indicated concentrations). After 24 hours of AP20187 treatment, mTeSR1 media with Alamar Blue (concentration based on manufacturer's protocol) was changed for both untreated and treated samples. A control well containing media+Alamar Blue was used to assess blank wells and to therefore to measure and subtract fluorescence noise.
(§1) Flow cytometric quantification of viable cells—NANOG^iCasp9-YFP hESCs were dissociated into single cells with Accutase and 1×10^6 cells were plated per well in a 6-well plate pre-coated with Matrigel. […] Subsequently, to quantify the percentage of surviving cells, the cultures were dissociated with TrypLE Express. […] YFP^+ (i.e., NANOG^+) cells were analyzed (Beckman Coulter CytoFlex Analyzer) to count live cells for both untreated and AP20187-treated groups. […]

[2] = test system: NANOG-YFP^+ hPSCs mixed with hPSC-derived sclerotome cells; assay: Ablation of undifferentiated hPSCs in a heterogeneous cell population (hPSCs spiked into day-5 sclerotome cells); type: cell-based, human
Protocol: FIG. 3: Implementation of the NANOG^iCasp9-YFP safety switch. A) Schema depicting how drug AP20187 induces dimerization of Caspase9 in undifferentiated NANOG^iCasp9-YFP hESCs, subsequently triggering cell death (top left). NANOG^iCasp9-YFP hESCs were treated for 24 hours with increasing concentrations of AP20187. AP20187 was withdrawn, and cultures were further grown in mTeSR1 to allow any surviving hESCs to grow; any surviving colonies were counted 1 week later (top right). Alkaline phosphatase staining of whole wells of a 12-well plate after 24-hour treatment with AP20187 (bottom). […] Bioluminescent imaging of mice occurred weekly for 5 weeks with no transplant control (NTC) animals included for relative luminescence normalization. Total flux (photons/sec) was measured for each animal and averaged. […] The percentage of surviving cells was calculated relative to untreated controls. […]
as §1

CC[C@H](C(=O)N1CCCC[C@H]1C(=O)O[C@H](CCc1ccc(OC)c(OC)c1)c1cccc(OCC(=O)NCC(CNC(=O)COc2cccc([C@@H](CCc3ccc(OC)c(OC)c3)OC(=O)[C@@H]3CCCCN3C(=O)[C@@H](CC)c3cc(OC)c(OC)c(OC)c3)c2)CN(C)C)c1)c1cc(OC)c(OC)c(OC)c1 [AP20]
concentration that activates the NANOG^iCasp9-YFP system [1]: 1 nM
duration of treatment that sufficed to eliminate hESCs [1]: 12 h
time to activity / cell death ([1]; 1 nM AP20187): ≤ 12 h
IC50 ([1]; undifferentiated NANOG^iCasp9-YFP hPSCs): 0.065 nM
decrease in NANOG-YFP^+ cells ([2]; 10% undifferentiated hPSCs in day-5 sclerotome progenitors, AP20 for last 24 hours): > 10 fold
colony formation of surviving FACS-purified NANOG-YFP^+ cells ([2]; continued culture in hPSC media after AP20): did not form colonies
